The results in this text go back to PMC5514153, “Targeting PTPRZ inhibits stem cell-like properties and tumorigenicity in glioblastoma cells” (Scientific Reports, 2017).

The nature of data set [1]: Plasma and brain levels after intraperitoneal injection. Format: in vivo, C57BL6 mice. The settings on record: for concentration at 1 h: mouse, ip, C57BL6 mice, 1 h after i.p. 30 mg/kg, two female mice. The text has this: NAZ2329 successfully suppresses the cell proliferation and cell migration of the differentiated glioblastoma cells, as well as cell sphere formation (Figs 7 to 8). NAZ2329 is the first cell-permeable R5 RPTP inhibitor. […] Nevertheless, NAZ2329 is a potentially valuable lead therapeutic for the development of drugs that function through allosteric inhibitory mechanisms against PTPs, such as PTPRZ and PTPRG.

The next data set deals with T1, mPTPRB (Mus musculus, UniProt B2RU80).
T1 construct: The ICRs of PTPRG, PTPRS, and PTPRB and the catalytic domains of PTPN1 and PTPN6; GST (N); made in house; host or cells: Escherichia coli BL21
Put plainly: In vitro PTPase assay (DiFMUP), PTPRB. To be noted: 60-min preincubation. In kind it is biochemical. The protocol:
(§1) Figure 4 NAZ2329, an allosteric inhibitor of R5 RPTP subfamily members. (A) Structure of NAZ2329. (B) Effect of preincubation of NAZ2329 on its inhibitory activity against PTPRZ. Recombinant human PTPRZ1 enzyme (the whole intracellular region) was premixed with NAZ2329 for the indicated times and followed by addition of a fluorogenic DiFMUP (non-specific PTP substrate, 6,8-difluoro-4-methylumbiliferyl phosphate) to measure PTP inhibitory activity. (C) Time dependence. The PTPRZ1 enzyme was added to the inhibitor–substrate mixture, and the inhibitory activity was determined at each time point relative to the vehicle control. (D) Reversibility of inhibition. […] The mixture was then 20-fold diluted, and recovered PTP activity was expressed as the relative activity compared with the vehicle-treated enzyme. […] PTPRZ1 enzymes were preincubated with NAZ2329 for 60 min, and the PTP activity was measured using DiFMUP. […]
(§2) Recombinant proteins corresponding to the entire intracellular regions (ICRs) of PTPRZ1, PTPRA, and PTPRM were expressed using a baculovirus-silkworm expression system, and purified as described. The ICRs of PTPRG, PTPRS, and PTPRB and the catalytic domains of PTPN1 and PTPN6 were expressed as glutathione-S-transferase (GST) fusion proteins from each pGEX plasmid in Escherichia coli strain BL21 (ref. [6]). […]

A further data set has as its target T2, hPTPRG (Homo sapiens, UniProt P23470).
T2 construct: The ICRs of PTPRG, PTPRS, and PTPRB and the catalytic domains of PTPN1 and PTPN6; GST (N); made in house; host or cells: Escherichia coli BL21
As to the kind of experiment: In vitro PTPase assay (DiFMUP), PTPRG. To be noted: 60-min preincubation. Format: biochemical. On the procedure:
as §1, §2

Data set [2] deals with T3, human PTPRZ1 (whole intracellular region, D1+D2) (Homo sapiens, UniProt P23471).
T3 construct: Recombinant proteins corresponding to the entire intracellular regions (ICRs) of PTPRZ1, PTPRA, and PTPRM; made in house; host or cells: baculovirus-silkworm expression system
Put plainly: In vitro PTPase assay (DiFMUP), PTPRZ1 whole intracellular region. In kind it is biochemical. On the procedure: Figure 4 NAZ2329, an allosteric inhibitor of R5 RPTP subfamily members. (A) Structure of NAZ2329. (B) Effect of preincubation of NAZ2329 on its inhibitory activity against PTPRZ. Recombinant human PTPRZ1 enzyme (the whole intracellular region) was premixed with NAZ2329 for the indicated times and followed by addition of a fluorogenic DiFMUP (non-specific PTP substrate, 6,8-difluoro-4-methylumbiliferyl phosphate) to measure PTP inhibitory activity. (C) Time dependence. The PTPRZ1 enzyme was added to the inhibitor–substrate mixture, and the inhibitory activity was determined at each time point relative to the vehicle control. (D) Reversibility of inhibition. PTPRZ1 enzymes were preincubated with NAZ2329 at the indicated concentrations for 30 min. The mixture was then 20-fold diluted, and recovered PTP activity was expressed as the relative activity compared with the vehicle-treated enzyme. (E) Lineweaver-Burk plot analysis. PTPRZ1 enzymes were preincubated with NAZ2329 for 60 min, and the PTP activity was measured using DiFMUP. (F) Concentration-inhibition curves of NAZ2329 for representative PTP members, including human PTPRZ and PTPRG (another R5 RPTP subfamily member), human PTPRS (R2A subfamily), human PTPRM (R2B subfamily), mouse PTPRB (R3 subfamily), human PTPRA (R4 subfamily), human PTPN1 (non-transmembrane PTP, NT1 subfamily), and human PTPN6 (NT2 subfamily), were generated. Assays were performed using DiFMUP. IC50 values obtained are shown in the inset. Data represent the averages of two or three separate experiments. TEXT PRINTED IN THE PICTURE: (F) NAZ2329: IC50 (μM): hPTPRZ1 7.5; IC50 (μM): hPTPRG 4.8; IC50 (μM): hPTPRA 35.7; IC50 (μM): hPTPRM 56.7; IC50 (μM): hPTPRS 23.7; IC50 (μM): mPTPRB 35.4; IC50 (μM): hPTPN6 15.2; IC50 (μM): hPTPN1 14.5
Recombinant proteins corresponding to the entire intracellular regions (ICRs) of PTPRZ1, PTPRA, and PTPRM were expressed using a baculovirus-silkworm expression system, and purified as described. The ICRs of PTPRG, PTPRS, and PTPRB and the catalytic domains of PTPN1 and PTPN6 were expressed as glutathione-S-transferase (GST) fusion proteins from each pGEX plasmid in Escherichia coli strain BL21 (ref. [6]). GST fusion proteins were purified by glutathione affinity chromatography as described. Chondroitinase ABC (chABC) was purchased from Sigma-Aldrich (catalog #C3667). Anti-PTPRZ-S, rabbit polyclonal antibodies against the extracellular region of PTPRZ was described previously (ref. [44]). The following are the specificities and sources of the commercially available antibodies used in the present study: Anti-RPTPβ (a monoclonal antibody against the intracellular domain of PTPRZ1 receptors, #610179, BD Biosciences), anti-SOX2 (#ab97959, Abcam), anti-POU3F2 (#12137, Cell Signaling), anti-OLIG2 (#AB9610, Millipore), anti-SALL2 (#12679–1-AP, Proteintech Group), anti-GAPDH (#ab9482, Abcam) anti-phosphotyrosine (PY20; #ab16389, Abcam), and anti-pY118-paxillin (#2541, Cell Signaling), mouse anti-paxillin antibody (#610569, BD Bioscience), anti-MBP (#sc-13914, Santa Cruz Biotechnology), and anti-NG2 proteoglycan (#AB5320, Millipore). […]

Where two headings read alike, the source gives them in different places.

T3 sequence (P23471 1663-2315 limits assumed): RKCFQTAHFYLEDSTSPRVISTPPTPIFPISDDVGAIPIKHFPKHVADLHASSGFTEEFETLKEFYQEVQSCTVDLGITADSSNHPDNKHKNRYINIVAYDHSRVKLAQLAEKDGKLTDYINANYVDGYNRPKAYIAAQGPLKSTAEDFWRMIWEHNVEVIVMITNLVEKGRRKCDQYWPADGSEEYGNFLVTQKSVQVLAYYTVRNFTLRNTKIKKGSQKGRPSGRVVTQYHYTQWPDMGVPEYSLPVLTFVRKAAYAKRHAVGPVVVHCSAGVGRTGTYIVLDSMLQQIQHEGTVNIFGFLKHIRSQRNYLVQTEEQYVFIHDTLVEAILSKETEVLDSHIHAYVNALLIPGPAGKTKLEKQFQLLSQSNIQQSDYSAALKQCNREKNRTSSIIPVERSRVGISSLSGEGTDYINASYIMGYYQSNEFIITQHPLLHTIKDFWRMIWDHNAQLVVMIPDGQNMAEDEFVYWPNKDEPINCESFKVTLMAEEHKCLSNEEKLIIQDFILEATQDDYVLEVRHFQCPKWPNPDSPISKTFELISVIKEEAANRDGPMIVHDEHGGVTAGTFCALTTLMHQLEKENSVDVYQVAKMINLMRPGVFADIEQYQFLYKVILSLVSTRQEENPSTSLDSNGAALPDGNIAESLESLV
T2 sequence (P23470 763-1445 limits assumed): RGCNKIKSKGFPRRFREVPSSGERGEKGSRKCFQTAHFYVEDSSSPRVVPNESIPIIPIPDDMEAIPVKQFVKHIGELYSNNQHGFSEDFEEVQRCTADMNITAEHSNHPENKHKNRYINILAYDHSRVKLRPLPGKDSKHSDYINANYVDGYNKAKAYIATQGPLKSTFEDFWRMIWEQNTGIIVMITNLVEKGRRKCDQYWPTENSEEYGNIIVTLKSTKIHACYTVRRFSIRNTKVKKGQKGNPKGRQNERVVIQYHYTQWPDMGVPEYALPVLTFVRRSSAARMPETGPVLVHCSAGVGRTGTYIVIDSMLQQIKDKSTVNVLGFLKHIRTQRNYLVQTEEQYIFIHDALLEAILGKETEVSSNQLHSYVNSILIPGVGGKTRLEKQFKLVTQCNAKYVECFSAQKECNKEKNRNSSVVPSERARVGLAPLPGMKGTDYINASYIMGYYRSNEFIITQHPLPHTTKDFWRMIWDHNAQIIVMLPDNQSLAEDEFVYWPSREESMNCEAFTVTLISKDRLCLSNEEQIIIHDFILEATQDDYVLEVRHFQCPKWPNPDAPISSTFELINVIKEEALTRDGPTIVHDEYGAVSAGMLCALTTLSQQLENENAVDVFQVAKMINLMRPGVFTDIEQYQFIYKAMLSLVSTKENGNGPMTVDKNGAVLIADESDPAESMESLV
T1 sequence (B2RU80 1644-1997 limits assumed): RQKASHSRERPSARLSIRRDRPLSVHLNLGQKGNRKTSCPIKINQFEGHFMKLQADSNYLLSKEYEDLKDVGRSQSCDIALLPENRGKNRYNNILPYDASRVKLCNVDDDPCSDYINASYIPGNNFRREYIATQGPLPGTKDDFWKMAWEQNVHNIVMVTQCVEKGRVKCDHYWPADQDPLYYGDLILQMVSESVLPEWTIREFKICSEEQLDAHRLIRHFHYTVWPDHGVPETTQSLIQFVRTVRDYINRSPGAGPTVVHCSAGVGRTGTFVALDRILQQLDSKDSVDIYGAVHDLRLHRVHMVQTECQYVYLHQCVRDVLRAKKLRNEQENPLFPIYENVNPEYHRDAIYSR

By IC50 is commonly meant the concentration that gives 50% inhibition. On to `CCOc1ccc(C(F)(F)F)cc1CSc1ccsc1C(=O)NS(=O)(=O)c1ccccc1` [NAZ2329], for which the BBB permeability entry in data set [1] (from plasma and brain levels 1 h after i.p. 30 mg/kg) was “poor BBB permeability”. Also, the concentration at 1 h in data set [1] (brain, read-out: average level in brain) was determined as 300 ng/g; in data set [1] (plasma, read-out: average level in plasma) it was 22000 ng/mL. Besides, the IC50 came to 35.4 µM against mPTPRB; 4.8 µM against hPTPRG; 7.5 µM in data set [2] (whole intracellular region, DiFMUP, 60-min preincubation, read-out: IC50 hPTPRZ1 (D1+D2)). Moreover, in data set [2] (30 min preincubation, then 20-fold dilution), the “reversibility: enzymatic activity after 20-fold dilution of enzyme-compound mixture” value is given as “fully recovered to the control level”. Moreover, in data set [2] (60 min preincubation, DiFMUP), the “type of inhibition (Lineweaver-Burk plot)” value was “noncompetitive-type inhibition”.
